Assay results from PubChem BioAssay AID1918939 (Molecular Pharmacology Branch, DTP, NCI, 2023).
pIC50: −log10 of the molar value.

Test system: 653999-131-R-J2-PDC complex spheroid viability
Assay: Anticancer human tumor 653999-131-R-J2-PDC patient-derived lung adenocarcinoma cell line growth inhibition
Settings: for pIC50: curve of first compound; for viability, T/C: stronger effect = lower value; active = viability on the fitted dose curve at most 10% of control; inactive = the rest
How it was run: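 Drug combinations with the LSD1 inhibitor iadademstat tested on tumor cells co-cultured as spheroids with endothelial cells and mesenchymal stem cells. Concentrations descended in half-log increments from clinical Cmax or 10 microM.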

[1] = second compound 0.1 µM, first compound 0.0316 µM
[2] = second compound 0.1 µM, first compound 0.1 µM
[3] = second compound 0.1 µM, first compound 0.316 µM
[4] = second compound 0.1 µM, first compound 1 µM
[5] = second compound 0.1 µM, first compound 3.16 µM
[6] = second compound 0.1 µM, first compound 10 µM
[7] = second compound 0.316 µM, first compound 0.0316 µM
[8] = second compound 0.316 µM, first compound 0.1 µM
[9] = second compound 0.316 µM, first compound 0.316 µM
[10] = second compound 0.316 µM, first compound 1 µM
[11] = second compound 0.316 µM, first compound 3.16 µM
[12] = second compound 0.316 µM, first compound 10 µM
[13] = second compound 1 µM, first compound 0.0316 µM
[14] = second compound 1 µM, first compound 0.1 µM
[15] = second compound 1 µM, first compound 0.316 µM
[16] = second compound 1 µM, first compound 1 µM
[17] = second compound 1 µM, first compound 3.16 µM
[18] = second compound 1 µM, first compound 10 µM
[19] = second compound 3.16 µM, first compound 0.0316 µM
[20] = second compound 3.16 µM, first compound 0.1 µM
[21] = second compound 3.16 µM, first compound 0.316 µM
[22] = second compound 3.16 µM, first compound 1 µM
[23] = second compound 3.16 µM, first compound 3.16 µM
[24] = second compound 3.16 µM, first compound 10 µM
[25] = second compound 10 µM, first compound 0.0316 µM
[26] = second compound 10 µM, first compound 0.1 µM
[27] = second compound 10 µM, first compound 0.316 µM
[28] = second compound 10 µM, first compound 1 µM
[29] = second compound 10 µM, first compound 3.16 µM
[30] = second compound 10 µM, first compound 10 µM
[31] = second compound 0.1 µM, first compound 0.00949 µM
[32] = second compound 0.1 µM, first compound 0.03 µM
[33] = second compound 0.1 µM, first compound 0.0949 µM
[34] = second compound 0.1 µM, first compound 0.3 µM
[35] = second compound 0.316 µM, first compound 0.00949 µM
[36] = second compound 0.316 µM, first compound 0.03 µM
[37] = second compound 0.316 µM, first compound 0.0949 µM
[38] = second compound 0.316 µM, first compound 0.3 µM
[39] = second compound 1 µM, first compound 0.00949 µM
[40] = second compound 1 µM, first compound 0.03 µM
[41] = second compound 1 µM, first compound 0.0949 µM
[42] = second compound 1 µM, first compound 0.3 µM
[43] = second compound 3.16 µM, first compound 0.00949 µM
[44] = second compound 3.16 µM, first compound 0.03 µM
[45] = second compound 3.16 µM, first compound 0.0949 µM
[46] = second compound 3.16 µM, first compound 0.3 µM
[47] = second compound 10 µM, first compound 0.00949 µM
[48] = second compound 10 µM, first compound 0.03 µM
[49] = second compound 10 µM, first compound 0.0949 µM
[50] = second compound 10 µM, first compound 0.3 µM
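Note: spheroids exposed to agents for seven days before readout.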

CC1(C)CCC(CN2CCN(c3ccc(C(=O)NS(=O)(=O)c4ccc(NCC5CCOCC5)c([N+](=O)[O-])c4)c(Oc4cnc5[nH]ccc5c4)c3)CC2)=C(c2ccc(Cl)cc2)C1 + NC1CC1c1ccc(-c2cccc(O)c2)cc1
5.24: pIC50 (second compound 0.1 µM)
5.31: pIC50 (second compound 0.316 µM)
inactive: viability, T/C [1] 117% | viability, T/C [2] 118% | viability, T/C [3] 107% | viability, T/C [4] 102% | viability, T/C [5] 81.5% | viability, T/C [6] 21.6% | viability, T/C [7] 103% | viability, T/C [8] 112% | viability, T/C [9] 101% | viability, T/C [10] 99.3% | viability, T/C [11] 65.7% | viability, T/C [12] 23.6% | viability, T/C [13] 103% | viability, T/C [14] 101% | viability, T/C [15] 107% | viability, T/C [16] 107% | viability, T/C [17] 72.6% | viability, T/C [18] 20.2% | viability, T/C [19] 89.9% | viability, T/C [20] 84.2% | viability, T/C [21] 105% | viability, T/C [22] 86.8% | viability, T/C [23] 76.5% | viability, T/C [24] 16.8% | viability, T/C [25] 85.3% | viability, T/C [26] 102% | viability, T/C [27] 89.4% | viability, T/C [28] 95.8% | viability, T/C [29] 68.8%
active: viability, T/C [30] 8.78%
5.34: pIC50 (second compound 10 µM)
5.28: pIC50 (second compound 1 µM) | pIC50 (second compound 3.16 µM)

CC1COCCN1c1cc(C2(S(C)(=N)=O)CC2)nc(-c2ccnc3[nH]ccc23)n1 (stereo not given) + NC1CC1c1ccc(-c2cccc(O)c2)cc1
5.58: pIC50 (second compound 3.16 µM)
5.68: pIC50 (second compound 0.316 µM)
5.65: pIC50 (second compound 10 µM)
inactive: viability, T/C [1] 99.7% | viability, T/C [2] 100% | viability, T/C [3] 102% | viability, T/C [4] 77.7% | viability, T/C [5] 47.9% | viability, T/C [6] 51.7% | viability, T/C [7] 104% | viability, T/C [8] 95.3% | viability, T/C [9] 92.5% | viability, T/C [10] 62.7% | viability, T/C [11] 42.5% | viability, T/C [12] 40.2% | viability, T/C [13] 83.1% | viability, T/C [14] 98.6% | viability, T/C [15] 83.7% | viability, T/C [16] 57.2% | viability, T/C [17] 39.8% | viability, T/C [18] 36.7% | viability, T/C [19] 90.2% | viability, T/C [20] 108% | viability, T/C [21] 94.5% | viability, T/C [22] 73.2% | viability, T/C [23] 43.9% | viability, T/C [24] 47.1% | viability, T/C [25] 77.2% | viability, T/C [26] 93% | viability, T/C [27] 82.3% | viability, T/C [28] 64% | viability, T/C [29] 41.1% | viability, T/C [30] 47.3%
5.80: pIC50 (second compound 1 µM)
< 5.00: pIC50 (second compound 0.1 µM)

CCN(c1cc(-c2ccc(CN3CCOCC3)cc2)cc(C(=O)NCc2c(C)cc(C)[nH]c2=O)c1C)C1CCOCC1 + NC1CC1c1ccc(-c2cccc(O)c2)cc1
inactive: viability, T/C [31] 92.9% | viability, T/C [32] 104% | viability, T/C [33] 97.8% | viability, T/C [34] 87.4% | viability, T/C (second compound 0.1 µM, first compound 0.949 µM) 94.1% | viability, T/C (second compound 0.1 µM, first compound 3 µM) 69.5% | viability, T/C [35] 102% | viability, T/C [36] 107% | viability, T/C [37] 97.8% | viability, T/C [38] 80.1% | viability, T/C (second compound 0.316 µM, first compound 0.949 µM) 79.3% | viability, T/C (second compound 0.316 µM, first compound 3 µM) 69.7% | viability, T/C [39] 96.1% | viability, T/C [40] 97.5% | viability, T/C [41] 89.4% | viability, T/C [42] 95.4% | viability, T/C (second compound 1 µM, first compound 0.949 µM) 93.6% | viability, T/C (second compound 1 µM, first compound 3 µM) 71.8% | viability, T/C [43] 108% | viability, T/C [44] 108% | viability, T/C [45] 109% | viability, T/C [46] 93.8% | viability, T/C (second compound 3.16 µM, first compound 0.949 µM) 89.3% | viability, T/C (second compound 3.16 µM, first compound 3 µM) 76.2% | viability, T/C [47] 101% | viability, T/C [48] 113% | viability, T/C [49] 97% | viability, T/C [50] 93% | viability, T/C (second compound 10 µM, first compound 0.949 µM) 90.4% | viability, T/C (second compound 10 µM, first compound 3 µM) 86.7%
< 5.52: pIC50 (second compound 0.1 µM) | pIC50 (second compound 0.316 µM) | pIC50 (second compound 1 µM) | pIC50 (second compound 3.16 µM) | pIC50 (second compound 10 µM)

Cn1ncnc1C1c2n[nH]c(=O)c3cc(F)cc(c23)NC1c1ccc(F)cc1 (stereo not given) + NC1CC1c1ccc(-c2cccc(O)c2)cc1
inactive: viability, T/C (second compound 0.1 µM, first compound 0.000316 µM) 90.3% | viability, T/C (second compound 0.1 µM, first compound 0.001 µM) 95.9% | viability, T/C (second compound 0.1 µM, first compound 0.00316 µM) 95% | viability, T/C (second compound 0.1 µM, first compound 0.01 µM) 90.7% | viability, T/C [1] 84.6% | viability, T/C [2] 83.4% | viability, T/C (second compound 0.316 µM, first compound 0.000316 µM) 92.2% | viability, T/C (second compound 0.316 µM, first compound 0.001 µM) 96.2% | viability, T/C (second compound 0.316 µM, first compound 0.00316 µM) 101% | viability, T/C (second compound 0.316 µM, first compound 0.01 µM) 91.4% | viability, T/C [7] 82.2% | viability, T/C [8] 80% | viability, T/C (second compound 1 µM, first compound 0.000316 µM) 90% | viability, T/C (second compound 1 µM, first compound 0.001 µM) 97.4% | viability, T/C (second compound 1 µM, first compound 0.00316 µM) 99.8% | viability, T/C (second compound 1 µM, first compound 0.01 µM) 90.6% | viability, T/C [13] 75.9% | viability, T/C [14] 82.6% | viability, T/C (second compound 3.16 µM, first compound 0.000316 µM) 89.7% | viability, T/C (second compound 3.16 µM, first compound 0.001 µM) 94.4% | viability, T/C (second compound 3.16 µM, first compound 0.00316 µM) 90.3% | viability, T/C (second compound 3.16 µM, first compound 0.01 µM) 85.1% | viability, T/C [19] 82.7% | viability, T/C [20] 80% | viability, T/C (second compound 10 µM, first compound 0.000316 µM) 85.5% | viability, T/C (second compound 10 µM, first compound 0.001 µM) 88.3% | viability, T/C (second compound 10 µM, first compound 0.00316 µM) 94.8% | viability, T/C (second compound 10 µM, first compound 0.01 µM) 86.3% | viability, T/C [25] 82.5% | viability, T/C [26] 78.6%
< 7.00: pIC50 (second compound 0.1 µM) | pIC50 (second compound 0.316 µM) | pIC50 (second compound 1 µM) | pIC50 (second compound 3.16 µM) | pIC50 (second compound 10 µM)

Nc1ncn(C2CC(O)C(CO)S2)c(=O)n1 (stereo not given) + NC1CC1c1ccc(-c2cccc(O)c2)cc1
inactive: viability, T/C (second compound 0.1 µM, first compound 0.000949 µM) 100% | viability, T/C (second compound 0.1 µM, first compound 0.003 µM) 90.5% | viability, T/C [31] 104% | viability, T/C [32] 91% | viability, T/C [33] 78.1% | viability, T/C [34] 64.8% | viability, T/C (second compound 0.316 µM, first compound 0.000949 µM) 94.9% | viability, T/C (second compound 0.316 µM, first compound 0.003 µM) 100% | viability, T/C [35] 77.4% | viability, T/C [36] 84.8% | viability, T/C [37] 87% | viability, T/C [38] 67.6% | viability, T/C (second compound 1 µM, first compound 0.000949 µM) 81.8% | viability, T/C (second compound 1 µM, first compound 0.003 µM) 101% | viability, T/C [39] 102% | viability, T/C [40] 88.8% | viability, T/C [41] 80.4% | viability, T/C [42] 67.5% | viability, T/C (second compound 3.16 µM, first compound 0.000949 µM) 102% | viability, T/C (second compound 3.16 µM, first compound 0.003 µM) 94.2% | viability, T/C [43] 98.2% | viability, T/C [44] 85.1% | viability, T/C [45] 93.8% | viability, T/C [46] 77% | viability, T/C (second compound 10 µM, first compound 0.000949 µM) 94.3% | viability, T/C (second compound 10 µM, first compound 0.003 µM) 92.9% | viability, T/C [47] 102% | viability, T/C [48] 79.6% | viability, T/C [49] 90.3% | viability, T/C [50] 74.8%
< 6.52: pIC50 (second compound 0.1 µM) | pIC50 (second compound 0.316 µM) | pIC50 (second compound 1 µM) | pIC50 (second compound 3.16 µM) | pIC50 (second compound 10 µM)
